Laboratory results reported in patent EP1261587B1, “STILBENE DERIVATIVES, THEIR PREPARATION AND THEIR USE AS ANTIVIRAL AGENTS” (priority 1999, dated 2001).
Structures can show the parent of a compound that is named as a salt. Where two headings read alike, the source gives them in different places.

What was measured:
HIV-1/LAV.04 = experiment: inhibition of viral growth of HIV-1 in PBLs (RT activity in cell supernatants); type: cell-based; conditions: concentration at which 90 % reduction of RT activity versus untreated control is observed; human PBLs infected with HIV-1/LAV.04
Procedure: In brief, Peripheral Blood Mononuclear Lymphocytes (PBLs) are obtained from the blood of healthy volunteers by leukapheresis. Cells (1 x 10^6/ml) are cultured for 2 days in RPMI-1640 (Gibco), supplemented with 10 % heat-inactivated fetal calf serum (Gibco), 50 mg/ml streptomycin, 50 U/ml penicillin (Amimed), 2 nM glutamine and 10 mM hepes buffer (Gibco). Stimulated lymphocytes are obtained by culturing in the presence of PHA (0.25 mg/ml; Wellcome diagnostics, Templehill, Dartford, England). PHA-lymphocyte stimulation is confirmed by the increase in cell size (Scattergram, FACS analysis). Cells are exposed to HIV-1/LAV.04 (see Barre-Sinoussi et al., Science 220, 868-871 (1983)) for 6 h. […] Medium is changed every 3 days and activity of viral reverse transcriptase (RT activity) is determined in cell supernatants, serving as a measure for the presence of virus and thus of progression of infection according to known procedures (see Willey et al., J. Virol. 62, 353-8 (1991) for details of the method). In brief, RT determination is possible as follows: The RT activity is determined in 50mM Tris (α,α,α--tris(hydroxymethyl)methylamine, ultra pure, Merck, Federal Republic of Germany) pH 7.8; 75mM of KCl, 2mM of dithiothreitol, 5mM of MgCl2; 0.05% Nonidet P-40 (detergent; Sigma, Switzerland); 50 µg/ml of polyadenylic acid (Pharmacia, Sweden); and 1.6 µg/ml of dT(12-18) (Sigma, Switzerland). […]

[1] = target: T1, Tat-TAR complex (recombinant Tat, synthetic TAR duplex) (Human immunodeficiency virus type 1 group M subtype B, UniProt P04608); experiment: competition Tat-TAR gel-shift assay; type: binding, HIV-1
T1 construct: purchased Medical Research Council (MRC), Cambridge, U.K
Text: The in vitro inhibition of the interaction between Tat and TAR can be shown by a competition Tat-TAR gel-shift assay. Through binding of the protein (recombinant Tat, Medical Research Council (MRC), Cambridge, U.K. - for the sequence of recombinant Tat see Churcher et al., J. Mol. Biol. 230, 90-110 (1993)) to the RNA (synthetic TAR duplex, Genset, Paris, France; for the sequence see Hamy et al., J. Mol. Biol. 230, 111-123 (1993)), the overall size and the charge/weight ratio of the formed duplex are changed, so that electrophoretic migration through a native polyacrylamide gel is affected. By radioactive labelling of the RNA and subsequent autoradiography, free RNA and complexes can be discriminated based on their relative positions in the gel (Hamy et al., J. Mol. Biol. 230, 111-123 (1993)). If the binding reaction with a test substance is able to prevent the protein binding to the radiolabelled RNA, this competition for binding can be visualized on the autoradiography as a decreased intensity of the retarded band. In more detail, compounds of the formula I are tested as follows:
The 14-mer strand of duplex TAR-RNA is labelled in the presence of T4 polynucleotide kinase (New England Biolabs, Beverly, MA, USA) using [γ-^32P]ATP (Amersham, Little Chalfont, UK), 10 mM DTT (=dithiothreitol), 50 mM Tris.HCI (pH 7.4, Tris = Tris(hydroxymethyl)aminomethane), 0.77 % (w/v) spermidine (Fluka, Switzerland) and 10 units T4 polynucleotide kinase incubated at 37 °C for 20 min. After heat-treatment (65 °C, 10 min) for enzyme inactivation, the unincorporated [γ-^32P]ATP is removed by chromatography through a Sephadex NAP-10 column (Pharmacia, Uppsala, Sweden) equilibrated with water. Prior to the in-vitro-binding reaction, the labelled 14-mer is annealed to 1.5 equivalents of unlabelled 17-mer by heating to 90 C for 3 min, followed by slow cooling down to 0 °C. […] The CD50-values that are obtained are preferably in the range of from 10 x 10^-9 to 10 x 10^-6 M, more preferably from 10 x 10^-9 to 0.5 x 10^-6 M.

[2] = maximal tolerated dose (MTD) determination in mice; type: in vivo
Procedure: After single application of up to 50 mg/kg by i.v. administration to mice no signs of overt toxicity are observed during 8 days of observation. In detail, the assay is conducted as follows: The assay is designed for the determination of the maximal tolerated dose (MTD) For the MTD determination, three six to eight week old female Balb/c AnCbif Tif mice (Ciba animal farm, Sisseln, Switzerland) per dose group are treated once i.v. The dosage is increased until toxic effects are observed within 7 days after drug treatment. After 7 days the animals are euthanasized and organs are macroscopically inspected. The MTD is the dose where all three animals still survive. For example, when the compounds of examples 2 or 4, trans-5-(Acetoacetylamino)-2-[2-{4-(4,5-dihydro-3-methyl-5-oxo-1H-pyrazol-1-yl)-2-sulfophenyl]ethenyl]-benzenesulfonic acid or N,N'-Bis(trans-4-{2-[4-(3-methyl-5-oxo-4,5-dihydro-1H.-pyrazol-1-yl)-2-sulfo-phenyl]-vinyl}-2-sulfophenyl)-[1,3,5]triazine-2,4,6-triamine, are dissolved in sterile sodium chloride solution 0.9%, the MTD after i.v. administration is > 50 mg/kg.

[3] = concentration giving 50 % decrease in intensity of the retarded band (Tat-TAR complex), 20 nM recombinant Tat, read-out: CD50 (the source's name)

T1 sequence (P04608 whole entry, one chain of several): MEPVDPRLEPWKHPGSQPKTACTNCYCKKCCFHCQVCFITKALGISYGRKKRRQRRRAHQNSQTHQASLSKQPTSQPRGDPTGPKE

Compound | ED90 (HIV-1/LAV.04) [nM] | IC50 [1] [nM] | MTD at 7 days ([2]; female, Balb/c AnCbif Tif, mouse, in vivo, iv) [mg/kg] | IC50 [1, 3] [nM] | MTD ([2]; single i.v. administration, female mice, dissolved in sterile sodium chloride solution 0.9%, dose where all three animals still survive, 10080 min) [mg/kg]
CC(=O)CC(=O)Nc1ccc(/C=C/c2ccc(N3N=C(C)CC3=O)cc2S(=O)(=O)O)c(S(=O)(=O)O)c1 [Example 2, trans-5-(Acetoacetylamino)-2-[2-{4-(4,5-dihydro-3-methyl-5-oxo-1H-pyrazol-1-yl)-2-sulfophenyl}ethenyl]-benzenesulfonic acid] | 30000 | 20 | > 50 |  | 
CC1=NN(c2ccc(/C=C/c3ccc(NC(=O)Nc4ccc(/C=C/c5ccc(N6N=C(C)C(N=Nc7ccccc7C(=O)O)C6=O)cc5S(=O)(=O)O)cc4S(=O)(=O)O)c(S(=O)(=O)O)c3)c(S(=O)(=O)O)c2)C(=O)C1N=Nc1ccccc1C(=O)O (stereo not drawn) [Example 5, N,N'-Bis(trans-4-{2-[4-(3-methyl-5-oxo-4-(o-carboxyphenylazo)-4,5-dihydro-1.H.-pyrazol-1-yl)-2-sulfo-phenyl]-vinyl}-2-sulfophenyl)-urea tetrasodium salt] |  |  |  | 70 | 
CC1=NN(c2ccc(/C=C/c3ccc(Nc4nc(Cl)nc(Nc5ccc(/C=C/c6ccc(N7N=C(C)CC7=O)cc6S(=O)(=O)O)cc5S(=O)(=O)O)n4)c(S(=O)(=O)O)c3)c(S(=O)(=O)O)c2)C(=O)C1 [Example 3, N,N'-Bis(trans-4-{2-[4-(3-methyl-5-oxo-4,5-dihydro-1.H.-pyrazol-1-yl)-2-sulfophenyl]-vinyl}-2-sulfophenyl)-2-chloro-[1,3,5]triazine-4,6-diamine] | 20000 |  |  | 50 | 
CC1=NN(c2ccc(/C=C/c3ccc(Nc4nc(N)nc(Nc5ccc(/C=C/c6ccc(N7N=C(C)CC7=O)cc6S(=O)(=O)O)cc5S(=O)(=O)O)n4)c(S(=O)(=O)O)c3)c(S(=O)(=O)O)c2)C(=O)C1 [Example 4, N,N'-Bis(trans-4-{2-[4-(3-methyl-5-oxo-4,5-dihydro-1.H.-pyrazol-1-yl)-2-sulfophenyl]-vinyl}-2-sulfophenyl)-[1,3,5]triazine-2,4,6-triamine] |  |  |  | 50 | > 50
